Data: patent US11396504B2, “Alkoxybenzo-five-membered (six-membered) heterocyclic amine compound and pharmaceutical use thereof” (FUDAN UNIVERSITY, priority 2018, dated 2022)

Columns and labels:
[1] = biological target: T1, Sphingomyelin Synthase 2 (SMS2 pure enzyme) (Homo sapiens, UniProt Q8NHU3); experiment: In vitro SMS2 pure enzyme inhibition, HPLC fluorogenic quantitative detecting method (C6-NBD-Ceramide to C6-NBD-SM); assay type: biochemical; settings: for Selectivity ratio: SMS1 IC50 relative to SMS2 IC50; for IC50: SMS2 pure enzyme, five concentrations, three parallel groups, experimental value
T1 construct: Yu, Cao research group of National Protein Science Center (Shanghai)
T1 sequence (Q8NHU3 1-365): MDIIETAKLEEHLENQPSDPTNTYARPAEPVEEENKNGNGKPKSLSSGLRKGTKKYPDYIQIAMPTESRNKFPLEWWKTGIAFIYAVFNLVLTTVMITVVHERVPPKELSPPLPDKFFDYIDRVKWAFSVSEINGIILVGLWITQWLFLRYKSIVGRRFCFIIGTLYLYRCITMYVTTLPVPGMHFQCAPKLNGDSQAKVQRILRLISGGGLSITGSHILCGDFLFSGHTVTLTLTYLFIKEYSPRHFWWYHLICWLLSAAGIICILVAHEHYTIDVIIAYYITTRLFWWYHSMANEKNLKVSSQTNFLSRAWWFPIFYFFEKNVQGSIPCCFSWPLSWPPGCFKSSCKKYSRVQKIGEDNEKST
Method: Add […] SMS2 pure enzyme DDM solution (total protein content 1.5 μg/μL), 1 μL test compound in DMSO solution or blank DMSO solution, 79.7 μL DDM buffer to 1.5 mL Eppendorf tube, vortex 30 seconds, let stand at room temperature for 5 min. Then add 20 μL DDM buffer containing 1 μL DMPC in ethanol (40 mmol/L) and 1 μL C6-NBD-Ceramide in DMSO (1.16 mmol/L). After vortexing for 30 seconds, Incubate for 0.5 h under water bath at 37° C. Then remove, add 200 μL of absolute ethanol, and vortex for 30 seconds. Take out 200 μL of the mixture and store it at 4° C. for high performance liquid chromatography analysis.
(§1) Using the same HPLC fluorogenic quantitative detecting method as reference (Xiaodong Deng; Hong Sun; et al. Analytical Letters, 2012, 45:12, 1581-1589) to analyses samples obtained above. Analysize and record peak areas of C6-NBD-SM (Asm) and C6-NBD-Ceramide (Acer) of each sample from blank group, positive control group (compound D2) and under tested compound group. Calculate inhibition rate from the formula below: […]
The DMSO stock solution of under tested compound (6 mM) was diluted stepwise into five concentration gradient. 1 μL solution of each concentration was added into the trial system to prepare samples with the method mentioned in the first step of application case 15. The Asm values of the five concentration solution of tested compound were measured (compound D2 is a positive control), and the inhibition rate under the five concentration were calculated and fitted to obtain median inhibitory concentration (IC50). Each compound was measured three parallel groups. SMS2 median inhibitory concentration and SMS1 single inhibitory concentration (50 μM) of Scheme I-1˜I-38, and SMS1 median inhibitory concentration of some compounds are listed below in Table 1.

[2] = biological target: T2, Sphingomyelin Synthase 1 (SMS1 pure enzyme) (Homo sapiens, UniProt Q86VZ5); experiment: In vitro SMS1 pure enzyme inhibition, HPLC fluorogenic quantitative detecting method; assay type: biochemical; settings: for inhibition at 50 µM: single concentration 50 μM
T2 construct: Yu, Cao research group of National Protein Science Center (Shanghai)
T2 sequence (Q86VZ5 1-413): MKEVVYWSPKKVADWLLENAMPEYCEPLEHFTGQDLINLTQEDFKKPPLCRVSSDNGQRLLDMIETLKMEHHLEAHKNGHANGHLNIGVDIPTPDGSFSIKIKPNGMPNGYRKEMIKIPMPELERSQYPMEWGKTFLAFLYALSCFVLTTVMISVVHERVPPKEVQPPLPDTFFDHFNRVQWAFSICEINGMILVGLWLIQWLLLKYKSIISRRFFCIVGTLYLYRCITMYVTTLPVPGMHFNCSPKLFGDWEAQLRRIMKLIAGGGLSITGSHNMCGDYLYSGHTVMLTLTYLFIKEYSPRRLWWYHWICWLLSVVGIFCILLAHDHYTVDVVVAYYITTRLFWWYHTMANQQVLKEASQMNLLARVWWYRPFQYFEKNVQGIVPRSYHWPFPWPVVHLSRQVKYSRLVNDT
Description: Referring to the above SMS2 inhibitory activity detection method, and using SMS1 pure enzyme instead of SMS2 pure enzyme for corresponding operation.
as §1
Part 4. Determination of SMS1 Median Inhibitory Concentration (IC50) and SMS1 Single Concentration (50 μM) Inhibitory Concentration of Alkoxybenzeno Five- or Six-Member Heterocyclic Amines (Scheme I-1˜I-38)
The experiment can be carried out with the corresponding concentration according to the operation similar to the determination of the median inhibitory concentration (IC50) of SMS2.

SMS = settings: reported weak inhibitory activity; cited from earlier work

Cc1ccccc1COc1cccc2onc(Nc3cccnc3)c12 [Scheme I-10, 4-((2-methylbenzyl)oxy)-N-(pyridin-3-yl)benzo[d]isoxazol-3-amine]
Selectivity ratio [1]: 140 | IC50 [1]: 0.498 µM | IC50 [2]: 70 µM | inhibition at 50 µM [2]: 41%

COc1cccc(COc2cccc3onc(Nc4cccnc4)c23)c1 [Scheme I-17, 4-((3-Methoxybenzyl)oxy)-N-(pyridin-3-yl)benzo[d]isoxazol-3-amine]
IC50 [1]: 0.523 µM | inhibition at 50 µM [2]: 17%

Cc1cccc(C)c1COc1cccc2onc(Nc3cccnc3)c12 [Scheme I-25, 4-((2,6-Dimethylbenzyl)oxy)-N-(pyridin-3-yl)benzo[d]isoxazol-3-amine]
Selectivity ratio [1]: 307 | IC50 [1]: 0.153 µM | IC50 [2]: 47 µM | inhibition at 50 µM [2]: 53%

COc1ccccc1COc1cccc2onc(Nc3cccnc3)c12 [Scheme I-16, 4-((2-Methoxybenzyl)oxy)-N-(pyridin-3-yl)benzo[d]isoxazol-3-amine]
Selectivity ratio [1]: 201 | IC50 [1]: 0.239 µM | IC50 [2]: 48 µM | inhibition at 50 µM [2]: 49%

c1ccc(COc2cccc3snc(Nc4cccnc4)c23)cc1 [Scheme I-31, 4-(benzyloxy)-N-(pyridin-3-yl)benzo[d]isothiazol-3-amine]
IC50 [1]: 1.46 µM | inhibition at 50 µM [2]: 13%

N#Cc1ccccc1COc1cccc2onc(Nc3cccnc3)c12 [Scheme I-22, 4-((2-Cyanobenzyl)oxy)-N-(pyridin-3-yl)benzo[d]isoxazol-3-amine]
IC50 [1]: 4.14 µM | inhibition at 50 µM [2]: 4%

CCc1ccccc1COc1cccc2onc(Nc3cccnc3)c12 [Scheme I-1, 4-((2-ethylbenzyl)oxy)-N-(pyridin-3-yl)benzo[d]isoxazol-3-amine]
Selectivity ratio [1]: 342 | IC50 [1]: 0.117 µM | IC50 [2]: 40 µM | inhibition at 50 µM [2]: 65%

Clc1cccc(Cl)c1COc1cccc2onc(Nc3cccnc3)c12 [Scheme I-26, 4-((2,6-Dichlorobenzyl)oxy)-N-(pyridin-3-yl)benzo[d]isoxazol-3-amine]
Selectivity ratio [1]: 886 | IC50 [1]: 0.079 µM | IC50 [2]: 70 µM | inhibition at 50 µM [2]: 25%

N#Cc1cccc(COc2cccc3onc(Nc4cccnc4)c23)c1 [Scheme I-23, 4-((3-Cyanobenzyl)oxy)-N-(pyridin-3-yl)benzo[d]isoxazol-3-amine]
IC50 [1]: 0.945 µM | inhibition at 50 µM [2]: 8%

Fc1cccc(COc2cccc3onc(Nc4cccnc4)c23)c1 [Scheme I-5, 4-((3-fluorobenzyl)oxy)-N-(pyridin-3-yl)benzo[d]isoxazol-3-amine]
IC50 [1]: 0.156 µM | inhibition at 50 µM [2]: 6%

S=C(S)OC1CC2CC1C1CCCC21 (stereo not drawn) [Scheme D609]
IC50 (SMS): 375 µM

FC(F)(F)c1ccc(COc2cccc3onc(Nc4cccnc4)c23)cc1 [Scheme I-15, 4-((4-Trifluoromethylbenzyl)oxy)-N-(pyridin-3-yl)benzo[d]isoxazole-3-amine]
IC50 [1]: > 10 µM | inhibition at 50 µM [2]: 9%
